Values quoted from earlier work as cited in US7648957B2, “Nutritional and therapeutic composition of an insulin sensitizer and a peptide fraction” (DSM IP Assets B.V., priority 2002, dated 2010).

Assays:
[1] = very high glucose levels
[2] = test system: cell's response to insulin; details: on administration of the chemical, estimated

methylhydroxy chalcone polymer [MHCP]
glucose levels in diabetic mice [1]: could normalise very high glucose levels
rise of sensitivity to insulin [2]: around 20 fold
